Assay results taken from PubChem BioAssay (NCI).
Where “and” joins values, the source holds several entries; their conditions need not be identical. Equal entries are not always repeated.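 48-hour exposure; five concentrations; linearly interpolated endpoints. GI50 = concentration required for 50% inhibition of growth. The concentration for full growth arrest is given as TGI.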

tested on: 786-0 renal; test: DTP human tumour cell line panel, 48 h

Point of comparison: `O=c1c2sc(=S)n(-c3ccc(F)cc3)c2ncn1Cc1ccc(F)cc1F`, GI50 80.5 µM. Against it:
- OC[C@H]1C[C@](O)(c2ccc(Cl)cc2)[C@@H](c2ccc(Cl)cc2)O1 — 3.6-fold lower, 22.4 µM
- C=COCCCOc1ccccc1 — higher, > 100 µM
- COc1cc2nc(-c3ccc(Cl)cc3)cc(OCCCN3CCCCC3)c2cc1OC — 31-fold lower, 2.62 µM
- C=CCCCCC/C=C\[C@H](O)C#CC#C/C=C/CO — 2.7-fold lower, 29.3 µM
- O=C1NC(=O)C(c2cnc3ccccn23)=C1c1cn2c3c(cc(F)cc13)CN(C(=O)N1CCCCC1)CC2 — 26-fold lower, 3.05 µM
- Clc1nc2ccccc2nc1CI — 20-fold lower, 3.95 µM
- [Cl][Hg][c]1cc(Br)cc(Br)c1 — 48-fold lower, 1.69 µM
- CC(C)c1ccc2c(c1)CC[C@@H]1[C@@](C)(C(=O)O)CCC[C@]21C — 18-fold lower, 4.58 µM
- CCN(CC)CCOc1ccc(-c2nc3cc(Cl)ccc3s2)cc1 — 48-fold lower, 1.68 µM
- C=C1C(=O)O[C@@H]2C[C@@H]1CC/C(C)=C/CC/C(C)=C/CC[C@@]2(C)O — 7-fold lower, 11.5 µM
- COc1ccc(/C=C(/C(=O)N2CCN(c3ccccc3)CC2)c2cc(OC)c(OC)c(OC)c2)cc1O — 20-fold lower, 4.1 µM
- O=C1/C(=C/c2ccc(Br)cc2)COc2ccc(O)c(O)c21 — 120-fold lower, 0.678 µM
- O=C(Nc1nc2ccc(C(F)(F)F)cc2s1)c1cc(Cl)ccc1O — 38-fold lower, 2.14 µM
- COc1cnc2c(c1)C(=O)c1c-2n(CCCNC(C)C)c(=O)c2cc(Cl)ccc12 — 180-fold lower, 0.438 µM
- CN1CCN(CCOc2ccc(-c3cnc4c(-c5ccccc5F)cnn4c3)cc2)CC1 — 45-fold lower, 1.78 µM

Point of comparison: `Cc1cc(CC(O)c2ccc(Cl)c(Cl)c2)nc(=O)[nH]1` (configuration not stated), TGI 38.7 µM. Against it:
- OC[C@H]1C[C@](O)(c2ccc(Cl)cc2)[C@@H](c2ccc(Cl)cc2)O1 — within 1.5-fold, 55.9 µM
- CC(C)N(C(=O)C12C3C4C5(C#N)C3C1(C#N)C5C42I)C(C)C (configuration not stated) — higher, > 100 µM
- C=COCCCOc1ccccc1 — higher, > 100 µM
- COc1cc2nc(-c3ccc(Cl)cc3)cc(OCCCN3CCCCC3)c2cc1OC — higher, > 100 µM
- COc1ccc2c3c([nH]c2c1[N+](=O)[O-])C(C)=NCC3 — higher, > 100 µM
- C=C(c1nc2ccc(Cl)cc2[nH]c1=O)C(O)c1ccc(C(O)C(=O)c2nc3ccc(Cl)cc3[nH]c2=O)cc1 (configuration not stated) — higher, > 100 µM
- O=c1c2sc(=S)n(-c3ccc(F)cc3)c2ncn1Cc1ccc(F)cc1F — higher, > 100 µM
- CC(C)(C)CC(C)(C)c1cc2c(O)c(c1)Cc1cc(C(C)(C)CC(C)(C)C)cc(c1O)Cc1cc(C(C)(C)CC(C)(C)C)cc(c1O)Cc1cc(C(C)(C)CC(C)(C)C)cc(c1O)C2 — higher, > 100 µM
- C=CCCCCC/C=C\[C@H](O)C#CC#C/C=C/CO — 2.1-fold higher, 82.2 µM
- COc1cc(C#CC(=O)OC/C=C/c2ccc3c(c2)OCO3)cc(OC)c1OC — higher, > 100 µM
- Cc1cc([N+](=O)[O-])ccc1Nc1cccc(Cl)c1C — within 1.5-fold, 31.9 µM
- O=C1NC(=O)C(c2cnc3ccccn23)=C1c1cn2c3c(cc(F)cc13)CN(C(=O)N1CCCCC1)CC2 — higher, > 59.4 µM
- Clc1nc2ccccc2nc1CI — 2.8-fold lower, 13.8 µM
- [Cl][Hg][c]1cc(Br)cc(Br)c1 — 12-fold lower, 3.2 µM
- CC(C)c1ccc2c(c1)CC[C@@H]1[C@@](C)(C(=O)O)CCC[C@]21C — 2.3-fold lower, 17 µM
- CCN(CC)CCOc1ccc(-c2nc3cc(Cl)ccc3s2)cc1 — 12-fold lower, 3.14 µM
- C=C1C(=O)O[C@@H]2C[C@@H]1CC/C(C)=C/CC/C(C)=C/CC[C@@]2(C)O — 1.6-fold lower, 24 µM
- [N-]=[N+]=NC12CC3C4CC5CC3C(C1)C(C5)C4C2 — higher, > 100 µM
- CC1=NNC(=O)C2CCC(=O)N12 (configuration not stated) — higher, > 100 µM
- Cn1c2c(c3ccccc31)C1CCCCCCC1C1C(=O)OC(=O)C21 (configuration not stated) — higher, > 100 µM
- Cc1ccc(S(=O)(=O)N(CC(=O)O)c2ccccc2)cc1 — higher, > 100 µM
- COc1ccc(/C=C(/C(=O)N2CCN(c3ccccc3)CC2)c2cc(OC)c(OC)c(OC)c2)cc1O — higher, > 100 µM
- O=C1/C(=C/c2ccc(Br)cc2)COc2ccc(O)c(O)c21 — 15-fold lower, 2.57 µM
- N#CC(N)(C(=O)CCC(=O)Nc1cccc(Cl)c1)c1ccc(Cl)cc1 (configuration not stated) — higher, > 100 µM
- O=C(Nc1nc2ccc(C(F)(F)F)cc2s1)c1cc(Cl)ccc1O — within 1.5-fold, 30.6 µM
- COc1cnc2c(c1)C(=O)c1c-2n(CCCNC(C)C)c(=O)c2cc(Cl)ccc12 — 20-fold lower, 1.98 µM
- CN1CCN(CCOc2ccc(-c3cnc4c(-c5ccccc5F)cnn4c3)cc2)CC1 — 12-fold lower, 3.29 µM
- CN(C)N=Nc1ccc(NC=O)cc1 — higher, > 100 µM
- C=C1C(=O)OC2CCN3CC=C(COC(=O)C(C)(O)C4(CO4)C1C)C23 (configuration not stated) — higher, > 100 µM

With `O/N=C/C1C(OCc2ccccc2)C(OCc2ccccc2)C(OCc2ccccc2)CN1Cc1ccccc1` (configuration not stated) the TGI was 21.1 µM and > 100 µM.
With `O=C1c2cccc(NCCCNCCO)c2C(=O)c2cccc(NCCCNCCO)c21` the TGI was 10.1 µM and 5.84 µM.

`COc1cc(N(CCC#N)CCC#N)ccc1/C(N=Nc1ccc([N+](=O)[O-])cc1)=N/NC(=O)c1cc(Br)ccc1O` gave a GI50 of 46.4 µg/mL.

`COc1cc(N(CCC#N)CCC#N)ccc1/C(N=Nc1ccc([N+](=O)[O-])cc1)=N/NC(=O)c1cc(Br)ccc1O` was tested, and the TGI was > 150 µg/mL.

tested on: CAKI-1 renal; test: DTP human tumour cell line panel, 48 h

Point of comparison: `COc1cc2nc(-c3ccc(Cl)cc3)cc(OCCCN3CCCCC3)c2cc1OC`, GI50 0.287 µM. Against it:
- OC[C@H]1C[C@](O)(c2ccc(Cl)cc2)[C@@H](c2ccc(Cl)cc2)O1 — 94-fold higher, 27 µM

Point of comparison: `COc1cc2nc(-c3ccc(Cl)cc3)cc(OCCCN3CCCCC3)c2cc1OC`, TGI 2.54 µM. Against it:
- OC[C@H]1C[C@](O)(c2ccc(Cl)cc2)[C@@H](c2ccc(Cl)cc2)O1 — 31-fold higher, 79.3 µM
- CC(C)N(C(=O)C12C3C4C5(C#N)C3C1(C#N)C5C42I)C(C)C (configuration not stated) — higher, > 100 µM
- C=COCCCOc1ccccc1 — higher, > 100 µM
- COc1ccc2c3c([nH]c2c1[N+](=O)[O-])C(C)=NCC3 — higher, > 100 µM
